Where two headings read alike, the source gives them in different places.
What was measured:
[1] = target: human DGKα (Homo sapiens (Human), UniProt P23743); assay: DGKα ADPGLO assay (detergent/lipid micelle substrate); type: biochemical
Method: DGK Alpha ADPGLO (Truncated) IC50 (uM)
The detergent/lipid micelle was prepared by combining 15 g phosphatidylserine (Avanti 840035P) and 1 g diacylglycerol (8008110) and dissolving into 150 mL chloroform in a 2 L round bottom flask. Chloroform was removed under high vacuum by rotary evaporation. […] The lipid/detergent solution was split into 5 mL aliquots and stored at −80° C.

[2] = target: human DGKζ (Homo sapiens (Human), UniProt Q13574); assay: DGKζ LIPGLO assay (extruded liposome substrate, ADP-Glo luminescence); type: biochemical
[3] = ADPGLO assay, read-out: DGK alpha ADPGLO IC50
[4] = liposome (LIPGLO) assay, read-out: DGK zeta (liposome assay) IC50
[5] = truncated DGK alpha, read-out: DGK alpha ADPGLO (Truncated) IC50
[6] = liposome assay, read-out: DGK zeta LIPGLO IC50

human DGKα, sequence (P23743 whole entry, looked up, the tested form may be a part): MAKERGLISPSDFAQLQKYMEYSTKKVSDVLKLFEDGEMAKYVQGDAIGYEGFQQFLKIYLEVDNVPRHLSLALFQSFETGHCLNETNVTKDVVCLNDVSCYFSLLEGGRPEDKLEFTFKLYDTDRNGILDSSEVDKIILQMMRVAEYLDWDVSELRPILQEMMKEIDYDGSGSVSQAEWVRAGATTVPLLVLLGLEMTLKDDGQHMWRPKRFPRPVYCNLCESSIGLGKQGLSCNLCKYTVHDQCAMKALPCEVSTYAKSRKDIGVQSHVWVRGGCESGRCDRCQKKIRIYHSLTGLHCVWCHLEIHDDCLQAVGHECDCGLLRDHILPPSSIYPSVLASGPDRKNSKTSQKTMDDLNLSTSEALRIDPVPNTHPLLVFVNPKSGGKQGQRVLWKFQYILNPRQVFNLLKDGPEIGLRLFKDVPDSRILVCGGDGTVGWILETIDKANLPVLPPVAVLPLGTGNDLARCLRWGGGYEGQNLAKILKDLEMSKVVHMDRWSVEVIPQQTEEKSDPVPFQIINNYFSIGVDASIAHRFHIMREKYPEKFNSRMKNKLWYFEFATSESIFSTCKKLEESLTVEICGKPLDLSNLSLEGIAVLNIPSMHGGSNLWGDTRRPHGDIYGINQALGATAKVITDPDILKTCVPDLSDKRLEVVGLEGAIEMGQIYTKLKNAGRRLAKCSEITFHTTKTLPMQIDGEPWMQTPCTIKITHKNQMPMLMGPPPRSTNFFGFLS
human DGKζ, sequence (Q13574 other isoform, or with tags, fused parts or gaps): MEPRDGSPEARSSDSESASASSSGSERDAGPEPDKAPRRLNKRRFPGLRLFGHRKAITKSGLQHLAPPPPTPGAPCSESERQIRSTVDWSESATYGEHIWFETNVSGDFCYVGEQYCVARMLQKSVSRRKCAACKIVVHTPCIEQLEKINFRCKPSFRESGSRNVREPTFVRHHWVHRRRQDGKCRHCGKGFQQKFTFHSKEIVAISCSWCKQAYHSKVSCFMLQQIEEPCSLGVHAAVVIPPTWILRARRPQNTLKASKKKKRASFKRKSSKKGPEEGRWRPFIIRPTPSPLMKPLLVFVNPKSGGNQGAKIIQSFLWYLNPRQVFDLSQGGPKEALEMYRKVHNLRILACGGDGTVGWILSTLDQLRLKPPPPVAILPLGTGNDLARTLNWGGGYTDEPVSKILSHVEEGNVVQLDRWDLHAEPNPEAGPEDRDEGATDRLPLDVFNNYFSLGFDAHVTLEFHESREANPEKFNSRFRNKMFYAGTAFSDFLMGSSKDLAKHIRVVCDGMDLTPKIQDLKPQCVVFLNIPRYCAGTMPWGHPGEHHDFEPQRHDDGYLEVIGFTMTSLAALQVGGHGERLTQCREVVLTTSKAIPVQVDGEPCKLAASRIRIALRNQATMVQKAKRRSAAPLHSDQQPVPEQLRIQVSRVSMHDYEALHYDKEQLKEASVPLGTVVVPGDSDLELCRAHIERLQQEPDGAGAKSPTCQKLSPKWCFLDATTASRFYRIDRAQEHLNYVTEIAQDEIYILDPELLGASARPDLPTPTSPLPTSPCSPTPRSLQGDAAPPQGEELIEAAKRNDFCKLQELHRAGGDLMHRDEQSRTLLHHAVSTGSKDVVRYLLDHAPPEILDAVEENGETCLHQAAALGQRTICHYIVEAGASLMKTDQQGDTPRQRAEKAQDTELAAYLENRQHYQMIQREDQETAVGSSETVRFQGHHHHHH

Row | IC50 [1, 3] | IC50 [2, 4] | IC50 [1, 5] | IC50 [2, 6] | Compound
1 | 400 nM | 180 nM | – | – | CC[C@H]1CN(C(C)c2ccc(C(F)(F)F)cc2)[C@H](CC)CN1c1nc(=O)n(C)c2ccc(OC(F)F)nc12 (stereo partly drawn) [Example 444, 4-((2S,5R)-2,5-Diethyl-4-(1-(4-(trifluoromethyl)phenyl)ethyl)piperazin-1-yl)-6-(difluoromethoxy)-1-methylpyrido[3,2-d]pyrimidin-2(1H)-one]
2 | 14900 nM | 2720 nM | – | – | CC[C@@H]1CN(c2nc(=O)n(C)c3ccc(C#N)nc23)[C@@H](C)CN1C(C)c1ccc(C(F)(F)F)c(CN(C)C)c1 (stereo partly drawn) [Example 352, 4-((2S,5R)-4-(1-(3-((dimethylamino)methyl)-4-(trifluoromethyl)phenyl)ethyl)-5-ethyl-2-methylpiperazin-1-yl)-1-methyl-2-oxo-1,2-dihydropyrido[3,2-d]pyrimidine-6-carbonitrile]
3 | – | – | 64 nM | 360 nM | CC[C@H]1CN(C(c2ccc(F)cc2)c2cccc(C(F)F)n2)[C@H](CC)CN1c1nc(=O)n(C)c2ccc(C#N)nc12 (stereo partly drawn) [Example 258, 4-((2S,5R)-4((6-(difluoromethyl)pyridin-2-yl)(4-fluorophenyl)methyl)-2,5-diethylpiperazin-1-yl)-1-methyl-2-oxo-1,2-dihydropyrido[3,2-d]pyrimidine-6-carbonitrile]
4 | – | – | 260 nM | 190 nM | CC[C@@H]1CN(c2nc(=O)n(C)c3ccc(C#N)nc23)[C@@H](CC)CN1Cc1ccc(C2CC2)cc1F [Example 242, 4-((2S,5R)-4-(4-cyclopropyl-2-fluorobenzyl)-2,5-diethylpiperazin-1-yl)-1-methyl-2-oxo-1,2-dihydropyrido[3,2-d]pyrimidine-6-carbonitrile]
5 | 10200 nM | 12100 nM | – | – | CCC(C1CC(F)(F)C1)N1C[C@H](C)N(c2nc(=O)n(C)c3ccc(C#N)nc23)C[C@H]1C (stereo partly drawn) [Example 456, 4-((2S,5R)-4-(1-(3,3-difluorocyclobutyl)propyl)-2,5-dimethylpiperazin-1-yl)-1-methyl-2-oxo-1,2-dihydropyrido[3,2-d]pyrimidine-6-carbonitrile]
6 | – | – | 36200 nM | 125000 nM | CC[C@H]1CN(C(C)c2ccc(CN3CCC(O)CC3)cc2)[C@H](CC)CN1c1nc(=O)n(C)c2ccc(C#N)nc12 (stereo partly drawn) [Example 286, 4-((2S,5R)-2,5-diethyl-4-(1-(4-((4-hydroxypiperidin-1-yl)methyl)phenyl)ethyl)piperazin-1-yl)-1-methyl-2-oxo-1,2-dihydropyrido[3,2-d]pyrimidine-6-carbonitrile]
7 | – | – | 160 nM | 18 nM | CC[C@H]1CN(C(C)c2ccc(CN3CCC(F)(F)CC3)cc2)[C@H](CC)CN1c1nc(=O)n(C)c2ccc(C#N)nc12 (stereo partly drawn) [Example 277, 4-((2S,5R)-4-(1-(4-((4,4-difluoropiperidin-1-yl)methyl)phenyl)ethyl)-2,5-diethylpiperazin-1-yl)-1-methyl-2-oxo-1,2-dihydropyrido[3,2-d]pyrimidine-6-carbonitrile]
8 | – | – | 5870 nM | 840 nM | CC[C@H]1CN(C(C)c2ccc(C(C)(C)N3CCOCC3)cc2)[C@H](CC)CN1c1nc(=O)n(C)c2ccc(C#N)nc12 (stereo partly drawn) [Example 247, 4-((2S,5R)-2,5-diethyl-4-(1-(4-(2-morpholinopropan-2-yl)phenyl)ethyl)piperazin-1-yl)-1-methyl-2-oxo-1,2-dihydropyrido[3,2-d]pyrimidine-6-carbonitrile]
9 | – | – | 4100 nM | 8540 nM | CC[C@H]1CN(C(C)c2ccc(CN3CCC(O)CC3)cc2)[C@H](CC)CN1c1nc(=O)n(C)c2ccc(C#N)nc12 (stereo partly drawn) [Example 285, 4-((2S,5R)-2,5-diethyl-4-(1-(4-((4-hydroxypiperidin-1-yl)methyl)phenyl)ethyl)piperazin-1-yl)-1-methyl-2-oxo-1,2-dihydropyrido[3,2-d]pyrimidine-6-carbonitrile]
10 | 7 nM | 760 nM | – | – | CCC(c1ccc(Br)cc1)N1C[C@H](C)N(c2nc(=O)n(C)c3ccc(C#N)nc23)C[C@H]1CC (stereo partly drawn) [Example 322, 4-((2 S,5R)-4-(1-(4-bromophenyl)propyl)-5-ethyl-2-methylpiperazin-1-yl)-1-methyl-2-oxo-1,2-dihydropyrido[3,2-d]pyrimidine-6-carbonitrile]

Source: US11584747B2, “Substituted pyridopyrimidinonyl compounds useful as T cell activators” (BRISTOL-MYERS SQUIBB COMPANY, priority 2019, dated 2023)
